Paper PMC4747340, “A new class of small molecule estrogen receptor-alpha antagonists that overcome anti-estrogen resistance” (Oncotarget, 2015)

Key:
Type in all cases: cell-based
ER Arg394Ala = molecular target: T1, ER Arg394Ala (Homo sapiens, UniProt P03372, R394A); assay: ER mutation analysis, ERE-TK-Luc reporter in transfected MDA-MB-231 cells; conditions: MDA-MB-231 transfected with mutant ER, E2 10 nM, 24 hr
T1 construct: expressed in transfected cells; host or cells: MDA-MB-231
From the text: (§1) B., C. Panels B and C show a comparison of the ER interaction of one of our original series of compounds (A7) (B) and one new compounds (48693-K/1) (C). ER is represented by gray ribbon and its residues interacting with the compounds are drawn with wireframe and labeled. […] The hydrogen bond interaction with ARG 394 is shown in green line. […] The cells were harvested for luciferase assays. Luciferase values are expressed as a percent of the +E2 vehicle control and are means ± SEMs of four wells. The data shown in panels D to G are representative of three independent experiments.
(§2) Subconfluent cells in 24-well dishes were transfected overnight with 0.25 μg of each indicated vector plus the ERE-TK-Luc reporter in serum-free DMEM containing Lipofectamine2000 (Life Technologies, Washington, DC). Total transfected DNA was kept constant by addition of control vector. The cells were washed, incubated in phenol red-free DMEM containing 5% charcoal-stripped serum (obtained from the Tissue Culture Shared Resource) (0.2 ml/well) ± E2 (10 nM) ± the indicated compound for 24-hr, and harvested for luciferase assays. For each assay condition was tested in quadrupicate. To monitor the transfection efficiency, cultures were co-transfected with plasmid pRSV-β-gal (Promega, Madison, WI) to visualize transfected cells by X-gal staining.

ER Glu323Ala = molecular target: T2, ER Glu323Ala (Homo sapiens, UniProt P03372, E323A); assay: as above; conditions: MDA-MB-231 transfected with mutant ER, E2 10 nM, 24 hr
T2 construct: expressed in transfected cells; host or cells: MDA-MB-231
T2 sequence (P03372 whole entry E323A): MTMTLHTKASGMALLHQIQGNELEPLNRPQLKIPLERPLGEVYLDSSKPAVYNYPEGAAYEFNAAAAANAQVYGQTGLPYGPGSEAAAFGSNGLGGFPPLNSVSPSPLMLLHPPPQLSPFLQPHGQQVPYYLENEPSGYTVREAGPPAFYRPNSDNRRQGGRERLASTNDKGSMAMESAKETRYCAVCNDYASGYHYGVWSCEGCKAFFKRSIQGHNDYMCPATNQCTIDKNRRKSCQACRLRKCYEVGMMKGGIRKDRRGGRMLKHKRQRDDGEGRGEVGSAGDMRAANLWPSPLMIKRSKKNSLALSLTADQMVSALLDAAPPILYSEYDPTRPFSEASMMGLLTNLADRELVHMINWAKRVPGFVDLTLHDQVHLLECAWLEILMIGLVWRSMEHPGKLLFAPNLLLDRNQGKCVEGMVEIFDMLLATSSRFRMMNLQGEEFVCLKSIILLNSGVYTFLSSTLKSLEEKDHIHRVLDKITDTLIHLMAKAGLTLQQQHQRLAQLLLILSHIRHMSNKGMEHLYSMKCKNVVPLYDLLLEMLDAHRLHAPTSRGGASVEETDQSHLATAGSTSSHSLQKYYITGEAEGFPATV
From the text: as §1, §2

ER Glu353Ala = molecular target: T3, ER Glu353Ala (Homo sapiens, UniProt P03372, E353A); assay: as above; conditions: MDA-MB-231 transfected with mutant ER, E2 10 nM, 24 hr
T3 construct: expressed in transfected cells; host or cells: MDA-MB-231
T3 sequence (P03372 whole entry E353A): as the sequence (P03372 whole entry E323A) above, with A323E, E353A counted along it
From the text: as §1, §2

ER His356Ala = molecular target: T4, ER His356Ala (Homo sapiens, UniProt P03372, H356A); assay: as above; conditions: MDA-MB-231 transfected with mutant ER, E2 10 nM, 24 hr
T4 construct: expressed in transfected cells; host or cells: MDA-MB-231
T4 sequence (P03372 whole entry H356A): as the sequence (P03372 whole entry E323A) above, with A323E, H356A counted along it
From the text: as §1, §2

ER Ile326Ala = molecular target: T5, ER Ile326Ala (Homo sapiens, UniProt P03372, I326A); assay: as above; conditions: MDA-MB-231 transfected with mutant ER, E2 10 nM, 24 hr
T5 construct: expressed in transfected cells; host or cells: MDA-MB-231
T5 sequence (P03372 whole entry I326A): as the sequence (P03372 whole entry E323A) above, with A323E, I326A counted along it
From the text: as §1, §2

ER Ile386Ala = molecular target: T6, ER Ile386Ala (Homo sapiens, UniProt P03372, I386A); assay: as above; conditions: MDA-MB-231 transfected with mutant ER, E2 10 nM, 24 hr
T6 construct: expressed in transfected cells; host or cells: MDA-MB-231
T6 sequence (P03372 whole entry I386A): as the sequence (P03372 whole entry E323A) above, with A323E, I386A counted along it
From the text: as §1, §2

ER Ile386Ala+Leu387Ala = molecular target: T7, ER Ile386Ala+Leu387Ala (Homo sapiens, UniProt P03372, I386A/L387A); assay: as above; conditions: MDA-MB-231 transfected with mutant ER, E2 10 nM, 24 hr
T7 construct: expressed in transfected cells; host or cells: MDA-MB-231
T7 sequence (P03372 whole entry I386A/L387A): as the sequence (P03372 whole entry E323A) above, with A323E, I386A, L387A counted along it
From the text: as §1, §2

ER Leu327Ala = molecular target: T8, ER Leu327Ala (Homo sapiens, UniProt P03372, L327A); assay: as above; conditions: MDA-MB-231 transfected with mutant ER, E2 10 nM, 24 hr
T8 construct: expressed in transfected cells; host or cells: MDA-MB-231
T8 sequence (P03372 whole entry L327A): as the sequence (P03372 whole entry E323A) above, with A323E, L327A counted along it
From the text: as §1, §2

ER Leu387Ala = molecular target: T9, ER Leu387Ala (Homo sapiens, UniProt P03372, L387A); assay: as above; conditions: MDA-MB-231 transfected with mutant ER, E2 10 nM, 24 hr
T9 construct: expressed in transfected cells; host or cells: MDA-MB-231
T9 sequence (P03372 whole entry L387A): as the sequence (P03372 whole entry E323A) above, with A323E, L387A counted along it
From the text: as §1, §2

ER Lys449Ala = molecular target: T10, ER Lys449Ala (Homo sapiens, UniProt P03372, K449A); assay: as above; conditions: MDA-MB-231 transfected with mutant ER, E2 10 nM, 24 hr
T10 construct: expressed in transfected cells; host or cells: MDA-MB-231
T10 sequence (P03372 whole entry K449A): as the sequence (P03372 whole entry E323A) above, with A323E, K449A counted along it
From the text: as §1, §2

ER Pro324Ala = molecular target: T11, ER Pro324Ala (Homo sapiens, UniProt P03372, P324A); assay: as above; conditions: MDA-MB-231 transfected with mutant ER, E2 10 nM, 24 hr
T11 construct: expressed in transfected cells; host or cells: MDA-MB-231
T11 sequence (P03372 whole entry P324A): as the sequence (P03372 whole entry E323A) above, with A323E, P324A counted along it
From the text: as §1, §2

ER Pro325Ala = molecular target: T12, ER Pro325Ala (Homo sapiens, UniProt P03372, P325A); assay: as above; conditions: MDA-MB-231 transfected with mutant ER, E2 10 nM, 24 hr
T12 construct: expressed in transfected cells; host or cells: MDA-MB-231
T12 sequence (P03372 whole entry P325A): as the sequence (P03372 whole entry E323A) above, with A323E, P325A counted along it
From the text: as §1, §2

ER Prol325Ala = molecular target: T13, ER Prol325Ala (Homo sapiens, UniProt P03372, P325A); assay: as above; conditions: MDA-MB-231 transfected with mutant ER, E2 10 nM, 24 hr; second row for residue 325
T13 construct: expressed in transfected cells; host or cells: MDA-MB-231
T13 sequence (P03372 whole entry P325A): as the sequence (P03372 whole entry E323A) above, with A323E, P325A counted along it
From the text: as §1, §2

ER Trp393Ala = molecular target: T14, ER Trp393Ala (Homo sapiens, UniProt P03372, W393A); assay: as above; conditions: MDA-MB-231 transfected with mutant ER, E2 10 nM, 24 hr
T14 construct: expressed in transfected cells; host or cells: MDA-MB-231
T14 sequence (P03372 whole entry W393A): as the sequence (P03372 whole entry E323A) above, with A323E, W393A counted along it
From the text: as §1, §2

Wild-type ER = molecular target: T15, Wild-type ER (Homo sapiens, UniProt P03372); assay: as above; conditions: MDA-MB-231 transfected with wtER, E2 10 nM, 24 hr
T15 construct: expressed in transfected cells; host or cells: MDA-MB-231
From the text: as §1, §2

[1] = molecular target: T16, estrogen receptor-alpha (ER) (Homo sapiens, UniProt P03372); assay: constitutive ER activity, ERE-TK-Luc reporter, in anti-estrogen resistant LCC9 cells; design: LCC9 cells in 24-well dishes were transfected overnight with the ERE-TK-Luc reporter plasmid; endogenous in cells; host or cells: LCC9; conditions: compound plus Tam compared with compound alone, 24 hr
T16 sequence (P03372 1-595): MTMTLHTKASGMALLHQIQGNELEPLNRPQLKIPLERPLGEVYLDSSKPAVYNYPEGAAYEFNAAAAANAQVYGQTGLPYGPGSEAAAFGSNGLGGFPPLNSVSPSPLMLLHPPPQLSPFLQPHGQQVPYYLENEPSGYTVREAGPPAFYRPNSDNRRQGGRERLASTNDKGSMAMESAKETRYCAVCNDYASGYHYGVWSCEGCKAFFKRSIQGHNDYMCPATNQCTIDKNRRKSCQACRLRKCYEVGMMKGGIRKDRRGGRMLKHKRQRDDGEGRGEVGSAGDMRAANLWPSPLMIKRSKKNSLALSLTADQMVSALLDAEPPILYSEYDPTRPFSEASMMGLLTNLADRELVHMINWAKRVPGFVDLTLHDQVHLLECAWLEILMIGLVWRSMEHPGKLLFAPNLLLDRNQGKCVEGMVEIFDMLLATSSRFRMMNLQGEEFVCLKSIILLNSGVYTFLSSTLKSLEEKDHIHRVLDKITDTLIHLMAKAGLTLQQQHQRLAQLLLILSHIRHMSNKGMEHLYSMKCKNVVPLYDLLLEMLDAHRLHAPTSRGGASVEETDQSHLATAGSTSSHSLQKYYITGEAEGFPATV
Protocol: For MCF-7, luciferase activity is expressed as a fold-change relative to the no E2 control. For LCC9, luciferase activity is expressed relative to the control without the reporter present. Values plotted are means ± SEMs of four replicate wells. The data shown in each panel are representative of three independent experiments.
The cells were then treated with the indicated concentrations of the six bioactive compounds or vehicle only (DMSO) for 24-hr and assayed for luciferase activity. Luciferase activity is expressed as a percentage of the DMSO control. Values are means ± SEMs of four replicate wells. The data shown in each panel are representative of three independent experiments.
The cells were then harvested for luciferase assays. Luciferase activity was expressed as a fold-change relative to the no reporter control. Values plotted are means ± SEMs of four replicate wells. The data shown are representative of three independent experiments.
as §2

T1 sequence (P03372 whole entry R394A): as the sequence (P03372 whole entry E323A) above, with A323E, R394A counted along it

IC50 (ER Arg394Ala): 12 µM | IC50 (ER Glu323Ala): 13 µM | IC50 (ER Glu353Ala): 11 µM | IC50 (ER His356Ala): 11 µM | IC50 (ER Ile326Ala): 13 µM | IC50 (ER Ile386Ala): 2.5 µM | IC50 (ER Ile386Ala+Leu387Ala): 2.5 µM | IC50 (ER Leu327Ala): 12 µM | IC50 (ER Leu387Ala): 2.5 µM | IC50 (ER Lys449Ala): 2 µM | IC50 (ER Pro324Ala): 3 µM | IC50 (ER Pro325Ala): 7 µM | IC50 (ER Prol325Ala): 7 µM | IC50 (ER Trp393Ala): 12 µM | IC50 (Wild-type ER): 2.5 µM
SMILES: Oc1cc(CN2COc3ccccc32)c(O)cc1CNC1CCCCC1 [A7, reference compound]
ER activity in LCC9 cells, compound combined with Tam [1]: no more inhibition of ER activity than A7 alone
